Values quoted from earlier work, collected in publication PMC9959244, “Revisiting the Solubility–Permeability Relationship with Hydrophobic Drug Umifenovir in Pluronic Solutions: Impact of pH and Co-Solvent” (Pharmaceutics, 2023).
Like-named read-outs stand apart in the source and are kept apart here.

Legend:
[1] = set-up: method as in doi:10.1016/S1773-2247(07)50022-5; details: cited from earlier work
[2] = set-up: method as in PMID 33926020; details: kneaded ternary complex with β-cyclodextrin and 1% poloxamer 188; cited from earlier work

## CCOC(=O)c1c(CSc2ccccc2)n(C)c2cc(Br)c(O)c(CN(C)C)c12.Cl [arbidol hydrochloride]
[1]; solid dispersion with PEG 4000
  Increase of dissolution at 3 min vs pure compound: 14.0 fold
  Percent concentration after 3 min of dissolution: 53.6%
[1]; solid dispersion with PEG 8000
  Increase of dissolution at 3 min vs pure compound: 15.4 fold
  Percent concentration after 3 min of dissolution: 59.0%
[2]
  Solubility increase: 13.1 fold
